Earlier results in patent US20200281134A1, “GROWTH SUBSTRATE PRODUCT” (ROCKWOOL International A/S, priority 2015, published 2020).

Conditions: 3-hydroxy group

For `O=C1O[C@H]([C@@H](O)CO)C(O)=C1O` [ascorbic acid, Ascorbic acid], which pKa is on record?
Its pKa is 4.04.
